This is an account of results in article PMC12526004, “Tiliroside Suppresses Uric Acid Production in Hepatocytes and Attenuates Purine-Induced Hyperuricemia in Male ICR Mice” (Molecules, 2025).

Common to all, as to assay type: in vivo, male ICR mice
The test system of assay [1] is mice with purine-induced hyperuricemia. The assay is described as follows: Hepatic UA level in hyperuricemic model mice. The conditions noted are these: three days; for Hepatic UA Level: mean ± SEM. How it is done:
(§1) The antihyperuricemic effect of tiliroside was evaluated using mice with purine-induced hyperuricemia, following a previously described procedure. […] The test compounds were suspended in 0.2 mL of 0.5% CMC-Na based on the average body weight of each group. The actual volume administered was adjusted according to the individual body weight of each mouse. Prior to each administration, the mice were fasted for four hours. The negative and hyperuricemic control groups received the vehicle (0.5% CMC-Na) alone. […] GMP and IMP were dissolved in 0.2 mL of PBS (–) based on the average body weight of all mice. The injection volume was similarly adjusted according to each mouse’s body weight. These injections were performed one hour after the final oral administration of the test compounds or vehicle. The negative control group received PBS (–) alone. […] The liver and kidneys were then excised. Blood samples were centrifuged at 5000× g for 10 min at 4 °C to obtain plasma, which was stored at −80 °C until analysis. Liver samples preparation was performed according to the methods previously described. Each portion of the liver tissue was processed for a specific analysis. One portion was homogenized in ice-cold 100 mM Tris-HCl buffer (pH 7.5), followed by sonication and centrifugation at 10,000× g for 5 min at 4 °C. The resulting supernatant was collected for the determination of UA levels. Another portion was treated similarly using Tris-HCl buffer containing 1 mM EDTA-2Na, and the supernatant was used to measure XO activity. The final portion was homogenized in ice-cold RIPA lysis buffer (Nacalai Tesque) and centrifuged under the same conditions, and the resulting supernatant was used for Western blot analysis. UA concentrations in plasma and liver homogenates were determined using the uricase-based Uric Acid C-Test Wako. Protein concentrations in the liver samples were measured with the Pierce™ BCA Protein Assay Kit. Liver UA levels were expressed as milligrams per gram of liver protein (mg/g protein).

The subject of assay [2] is hepatic XO protein expression. The assay is described as follows: Western blot of hepatic XO protein expression. Conditions: three days, normalized to GAPDH. How it is done: as §1, with “Another portion was treated similarly using Tris-HCl buffer containing 1 mM EDTA-2Na, and the supernatant was used to measure XO activity. The final portion was homogenized in ice-cold RIPA lysis buffer (Nacalai Tesque) and centrifuged under the same conditions, and the resulting supernatant was used for Western blot analysis. UA concentrations in plasma and liver homogenates were determined using the uricase-based Uric Acid C-Test Wako. Protein concentrations in the liver samples were measured with the Pierce™ BCA Protein Assay Kit. Liver UA levels were expressed as milligrams per gram of liver protein (mg/g protein).” left out
(A western blot detects proteins with antibodies after separation by electrophoresis.)

A further assay concerns NPT4. Nature of the assay: Renal mRNA expression, real-time quantitative PCR. Conditions: three days. How it is done:
(§2) The antihyperuricemic effect of tiliroside was evaluated using mice with purine-induced hyperuricemia, following a previously described procedure. […] The test compounds were suspended in 0.2 mL of 0.5% CMC-Na based on the average body weight of each group. The actual volume administered was adjusted according to the individual body weight of each mouse. Prior to each administration, the mice were fasted for four hours. The negative and hyperuricemic control groups received the vehicle (0.5% CMC-Na) alone. […] GMP and IMP were dissolved in 0.2 mL of PBS (–) based on the average body weight of all mice. The injection volume was similarly adjusted according to each mouse’s body weight. These injections were performed one hour after the final oral administration of the test compounds or vehicle. The negative control group received PBS (–) alone. […] The liver and kidneys were then excised. Blood samples were centrifuged at 5000× g for 10 min at 4 °C to obtain plasma, which was stored at −80 °C until analysis. To assess renal gene expression, four mice per group were selected based on plasma UA levels approximating the group mean. Total RNA was extracted from kidney tissues of the negative control, hyperuricemic model, allopurinol-treated, and high-dose tiliroside-treated groups using the Trizol-chloroform method (Thermo Fisher Scientific). Reverse transcription was performed with 1 µg of RNA using iScript reverse transcriptase (Bio-Rad, Hercules, CA, USA). Quantitative PCR was conducted using the MyiQ2 real-time PCR system (Bio-Rad), with GAPDH as the reference gene.

Another assay relates to OAT1. Nature of the assay: Renal mRNA expression, real-time quantitative PCR. The conditions noted are these: three days. How it is done: as §2
A further assay relates to URAT1. Nature of the assay: Renal mRNA expression, real-time quantitative PCR. The conditions noted are these: three days, vs hyperuricemic control. How it is done: as §2

SMILES strings stand for the structures.

For the compound `Oc1ncnc2[nH]ncc12` [Allopurinol, allopurinol, reference compound], the “Hepatic UA Level” value in assay [1] (10 mg/kg body weight oral) stood at 0.60 ± 0.03 mg/g Protein. Further, the “hepatic XO protein expression” value in assay [2] (10 mg/kg oral) is given as “No statistically significant differences”. Moreover, the “renal NPT4 mRNA expression” value with NPT4 (10 mg/kg oral) was “no significant differences”. In addition, in the assay with OAT1 (10 mg/kg oral), the “renal OAT1 mRNA expression” value is on record as “no significant differences”. For the same compound, the “renal URAT1 mRNA expression” value in the assay with URAT1 (10 mg/kg oral) is reported as “significantly downregulated”.

Regarding `O=C(/C=C/c1ccc(O)cc1)OC[C@H]1O[C@@H](Oc2c(-c3ccc(O)cc3)oc3cc(O)cc(O)c3c2=O)[C@H](O)[C@@H](O)[C@@H]1O` [Tiliroside, kaempferol-3-O-(6′′-p-coumaroyl)-glucoside], the “Hepatic UA Level” value came out at 1.30 ± 0.16 mg/g Protein in assay [1] (50 mg/kg oral), 1.13 ± 0.16 mg/g Protein in assay [1] (100 mg/kg oral) and 0.79 ± 0.11 mg/g Protein in assay [1] (300 mg/kg oral). The “lowering of hepatic UA level” value in assay [1] (300 mg/kg oral, hyperuricemic mice) is given as approximately 55%. The “hepatic XO protein expression” value in assay [2] (all tested doses (50, 100, and 300 mg/kg) oral) was “No statistically significant differences”. Further, the “renal NPT4 mRNA expression” value in the assay with NPT4 (300 mg/kg oral) was “no significant differences”. In addition, the “renal OAT1 mRNA expression” value in the assay on OAT1 (300 mg/kg oral) was “no significant differences”. For the same compound, in the assay with URAT1 (300 mg/kg oral), the “renal URAT1 mRNA expression” value was “significantly downregulated”.
